These results are taken from PubChem BioAssay (NCI).

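1) Cells in 96-well plates. 2) Compound, 48 h, 5 concentrations. 3) Linear interpolation between surrounding doses. 4) Unreached endpoint = highest concentration. GI50 is the concentration that inhibits growth by half. TGI: concentration producing complete growth inhibition.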

Test systems include K-562 leukemia; EKVX NSCLC; HOP-62 NSCLC; IGROV1 ovarian; SNB-19 CNS; NCI-H23 lung; UACC-257 melanoma; SN12C renal.
Holding throughout (assay): NCI tumour cell line growth inhibition, 48 h

Regarding `COc1cc(C2CC(c3ccc(N(C)C)cc3)=NN2C(C)=O)cc(OC)c1OC` (stereo not given), the GI50 is 1.74 µM with K-562 leukemia; 5.53 µM in the experiment with EKVX NSCLC; 2.16 µM with HOP-62 NSCLC; 2.65 µM in the experiment with IGROV1 ovarian; 4.33 µM in the experiment on NCI-H23 lung; above 69.5 µM in the experiment with UACC-257 melanoma. Further, in the experiment with SN12C renal, the GI50 is 11.3 µM. The TGI in the experiment on K-562 leukemia was above 100 µM; with EKVX NSCLC, above 100 µM; in the experiment on HOP-62 NSCLC, above 100 µM; in the experiment on IGROV1 ovarian, above 100 µM; with SNB-19 CNS, above 100 µM; in the experiment with NCI-H23 lung, above 67 µM. Also, the TGI in the experiment on UACC-257 melanoma and in the experiment on SN12C renal was above 100 µM throughout.
Take `COc1cc2c3c(n(C)c(=O)c2cc1OC)-c1cc2c(cc1/C3=C\C(N)CN)OCO2` (stereo not given): the GI50 in the experiment with K-562 leukemia is 3.74 µM; with EKVX NSCLC it was 2.1 µM; in the experiment with HOP-62 NSCLC, 1.29 µM; with IGROV1 ovarian, 0.791 µM; in the experiment with SNB-19 CNS, 1.36 µM; in the experiment on NCI-H23 lung, 1.84 µM. The GI50 in the experiment with UACC-257 melanoma is 6.38 µM; in the experiment on SN12C renal it was 1.81 µM. Further, the TGI was above 71.5 µM in the experiment with K-562 leukemia; 9.95 µM in the experiment on EKVX NSCLC; 8.91 µM in the experiment with HOP-62 NSCLC; above 49.3 µM in the experiment with SNB-19 CNS; 5.58 µM with NCI-H23 lung; 41.4 µM with UACC-257 melanoma. The TGI in the experiment on SN12C renal is above 26.4 µM.
For the compound `CCNCCNc1cc(C2CCCCC2)c(C#N)c2nc3ccccc3n12`, the GI50 with K-562 leukemia is 1.35 µM; in the experiment with EKVX NSCLC it was 2.18 µM; with HOP-62 NSCLC, 2.28 µM; in the experiment on IGROV1 ovarian, 2.38 µM; with SNB-19 CNS, 4.9 µM; in the experiment on NCI-H23 lung it was 2.06 µM. For the same compound, the GI50 with UACC-257 melanoma is 2.34 µM; in the experiment on SN12C renal it was 1.93 µM. Moreover, the TGI is 4.39 µM in the experiment with K-562 leukemia; 6.84 µM in the experiment with EKVX NSCLC; 6.93 µM in the experiment on HOP-62 NSCLC; 7.04 µM in the experiment on IGROV1 ovarian; 18.4 µM in the experiment on SNB-19 CNS; 5.54 µM in the experiment on NCI-H23 lung. Also, the results for the TGI in the experiment with UACC-257 melanoma and in the experiment on SN12C renal were 4.38 µM and 4.02 µM, respectively.
For the compound `c1ccc(CSc2nnc3c4ccccc4c4ccccc4c3n2)cc1`, the TGI was above 100 µM with K-562 leukemia; above 100 µM in the experiment with EKVX NSCLC; 75.6 µM in the experiment on HOP-62 NSCLC; above 46.6 µM in the experiment with IGROV1 ovarian; above 78.1 µM in the experiment with SNB-19 CNS; above 100 µM in the experiment on NCI-H23 lung. Further, the TGI in the experiment with UACC-257 melanoma and with SN12C renal was above 100 µM in each case.
As for `COC(=O)C(F)C(Br)C(=O)OC` (stereo not given), the TGI is 3.72 µM in the experiment with K-562 leukemia; 3.92 µM in the experiment on EKVX NSCLC; 35.7 µM in the experiment on HOP-62 NSCLC; above 20.5 µM in the experiment on IGROV1 ovarian; above 79.3 µM with SNB-19 CNS; 13.5 µM in the experiment on NCI-H23 lung. Moreover, the TGI in the experiment with UACC-257 melanoma came out at 28.4 µM; in the experiment with SN12C renal it was 30.9 µM.
As for `O=C(OCCBr)c1ccc(Cl)c([N+](=O)[O-])c1`, the GI50 with K-562 leukemia is 3.15 µM; in the experiment on EKVX NSCLC, 18.4 µM; in the experiment with HOP-62 NSCLC it was 1.91 µM; in the experiment on IGROV1 ovarian, 16.5 µM; with SNB-19 CNS, 1.87 µM; with NCI-H23 lung it was 11.2 µM. The GI50 was 9.02 µM in the experiment on UACC-257 melanoma and 17.1 µM in the experiment on SN12C renal. The TGI came out at 13.2 µM with K-562 leukemia; 37.1 µM in the experiment with EKVX NSCLC; 3.63 µM in the experiment on HOP-62 NSCLC; 37.6 µM in the experiment with IGROV1 ovarian; 3.74 µM in the experiment on SNB-19 CNS; 27.2 µM in the experiment with NCI-H23 lung. Besides, the TGI with UACC-257 melanoma was determined as 22.9 µM; with SN12C renal it was 33.2 µM.
`Nc1n[nH]c2ccc([C@@H]3Nc4ccc5[nH]ncc5c4[C@H]4C5C=CC(C5)[C@@H]34)cc12` (stereo not given in full): the GI50 was 0.0992 µM in the experiment on K-562 leukemia; 0.505 µM with EKVX NSCLC; 0.52 µM with HOP-62 NSCLC; 0.497 µM with IGROV1 ovarian; 0.59 µM in the experiment on SNB-19 CNS; 0.446 µM with NCI-H23 lung. In addition, the results for the GI50 with UACC-257 melanoma and with SN12C renal were 12.5 µM and 0.52 µM, respectively. The TGI is above 100 µM in the experiment with K-562 leukemia; 43.2 µM with EKVX NSCLC; 20.7 µM in the experiment on HOP-62 NSCLC; 24.9 µM in the experiment with IGROV1 ovarian; 61.3 µM in the experiment on SNB-19 CNS; 14 µM in the experiment on NCI-H23 lung. Also, the results for the TGI in the experiment with UACC-257 melanoma and with SN12C renal were 58.5 µM and 28.2 µM, respectively.
Consider `O=C(N/N=C/c1cc([N+](=O)[O-])ccc1O)c1cccc2ccccc12`, for which the GI50 is 3.26 µM in the experiment with K-562 leukemia; 3.8 µM with EKVX NSCLC; 3.73 µM in the experiment with HOP-62 NSCLC; 2.36 µM in the experiment on IGROV1 ovarian; 7.65 µM in the experiment on SNB-19 CNS; 4.68 µM in the experiment with NCI-H23 lung. The values for the GI50 in the experiment with UACC-257 melanoma and in the experiment with SN12C renal were 2.7 µM and 6.62 µM, respectively. For the same compound, the TGI was above 100 µM in the experiment with K-562 leukemia; 29.7 µM in the experiment with EKVX NSCLC; 35.2 µM with HOP-62 NSCLC; 8.47 µM in the experiment on IGROV1 ovarian; above 100 µM in the experiment with SNB-19 CNS; above 100 µM in the experiment with NCI-H23 lung. The TGI was 26.9 µM in the experiment on UACC-257 melanoma and above 100 µM in the experiment on SN12C renal.
In the case of `CCC(/C=C/c1ccccc1)=N\Nc1ccc(Cl)c(Cl)c1`, the TGI in the experiment with K-562 leukemia was above 100 µM; with EKVX NSCLC, above 100 µM; with HOP-62 NSCLC, above 100 µM; in the experiment with IGROV1 ovarian it was 37.5 µM; with SNB-19 CNS, above 100 µM; with NCI-H23 lung, above 100 µM. Further, the TGI in the experiment with UACC-257 melanoma is above 100 µM; with SN12C renal, 74.8 µM.
For the compound `CCN1C(=O)N(CC)C2C1NN=c1s/c(=C\c3cc4ccccc4[nH]3)c(=O)n12` (stereo not given), the GI50 in the experiment with K-562 leukemia was below 0.01 µM; in the experiment with EKVX NSCLC, 0.0453 µM; in the experiment with HOP-62 NSCLC, 0.0412 µM; in the experiment on IGROV1 ovarian, 0.0139 µM; in the experiment on SNB-19 CNS, 0.055 µM; in the experiment on NCI-H23 lung, 0.0445 µM. Further, the GI50 is 12.2 µM with UACC-257 melanoma and 0.0241 µM with SN12C renal. Also, the TGI is above 100 µM in the experiment with K-562 leukemia; above 100 µM with EKVX NSCLC; 18.7 µM with HOP-62 NSCLC; 12.2 µM in the experiment on IGROV1 ovarian; 15.8 µM in the experiment with SNB-19 CNS; above 76.9 µM with NCI-H23 lung. Further, the TGI in the experiment on UACC-257 melanoma is above 100 µM; with SN12C renal, 14.6 µM.
As to `Nc1cc(N)c2nc(-c3ccccc3)c(NCc3ccc(F)cc3)nc2c1`, the GI50 in the experiment with K-562 leukemia is 4.39 µM; in the experiment with EKVX NSCLC it was 1.89 µM; in the experiment with HOP-62 NSCLC, 39.1 µM; in the experiment with IGROV1 ovarian it was 3.11 µM; in the experiment with SNB-19 CNS, 6.68 µM; with NCI-H23 lung, 2.38 µM. Moreover, the GI50 in the experiment on UACC-257 melanoma is 2.02 µM; in the experiment with SN12C renal, 7.5 µM. The TGI is above 100 µM with K-562 leukemia; 4.07 µM with EKVX NSCLC; above 100 µM in the experiment on HOP-62 NSCLC; above 100 µM in the experiment with IGROV1 ovarian; 20.1 µM with SNB-19 CNS; 4.6 µM in the experiment on NCI-H23 lung. In addition, the TGI with UACC-257 melanoma is 4.26 µM; with SN12C renal, 23.7 µM.
